Drawing on patent publication US20230024096A1, “BIFUNCTIONAL COMPOUNDS FOR THE TREATMENT OF CANCER” (Hoffmann-La Roche Inc., priority 2019, published 2023), this text covers DC50 and Emax for seven compounds.

What is called Emax is the maximal effect, on the per cent scale that the assay sets.

This assay concerns the target T1, SMARCA2 (Homo sapiens, UniProt P51531).
T1 construct: endogenous in cells; host or cells: HT1080 (CRISPR HiBiT knock-in clone, generated in house)
The assay can be described thus: SMARCA2 HiBiT degradation assay (cellular). It is filed as cell-based. Conditions: table head names A549; for DC50: 6 h incubation, HiBiT-tagged SMARCA2, luminescence read-out, read-out: HiBit A549 SMARCA2 IP (nM) 6 h; for Emax: A549, 6 h incubation, Emax = amount of residual protein remaining in the cell following compound treatment. (In general: HiBiT is a short tag that completes a luciferase, so light tracks the accessible tagged protein.)

Structures are written as SMILES.

T1 sequence (P51531 whole entry): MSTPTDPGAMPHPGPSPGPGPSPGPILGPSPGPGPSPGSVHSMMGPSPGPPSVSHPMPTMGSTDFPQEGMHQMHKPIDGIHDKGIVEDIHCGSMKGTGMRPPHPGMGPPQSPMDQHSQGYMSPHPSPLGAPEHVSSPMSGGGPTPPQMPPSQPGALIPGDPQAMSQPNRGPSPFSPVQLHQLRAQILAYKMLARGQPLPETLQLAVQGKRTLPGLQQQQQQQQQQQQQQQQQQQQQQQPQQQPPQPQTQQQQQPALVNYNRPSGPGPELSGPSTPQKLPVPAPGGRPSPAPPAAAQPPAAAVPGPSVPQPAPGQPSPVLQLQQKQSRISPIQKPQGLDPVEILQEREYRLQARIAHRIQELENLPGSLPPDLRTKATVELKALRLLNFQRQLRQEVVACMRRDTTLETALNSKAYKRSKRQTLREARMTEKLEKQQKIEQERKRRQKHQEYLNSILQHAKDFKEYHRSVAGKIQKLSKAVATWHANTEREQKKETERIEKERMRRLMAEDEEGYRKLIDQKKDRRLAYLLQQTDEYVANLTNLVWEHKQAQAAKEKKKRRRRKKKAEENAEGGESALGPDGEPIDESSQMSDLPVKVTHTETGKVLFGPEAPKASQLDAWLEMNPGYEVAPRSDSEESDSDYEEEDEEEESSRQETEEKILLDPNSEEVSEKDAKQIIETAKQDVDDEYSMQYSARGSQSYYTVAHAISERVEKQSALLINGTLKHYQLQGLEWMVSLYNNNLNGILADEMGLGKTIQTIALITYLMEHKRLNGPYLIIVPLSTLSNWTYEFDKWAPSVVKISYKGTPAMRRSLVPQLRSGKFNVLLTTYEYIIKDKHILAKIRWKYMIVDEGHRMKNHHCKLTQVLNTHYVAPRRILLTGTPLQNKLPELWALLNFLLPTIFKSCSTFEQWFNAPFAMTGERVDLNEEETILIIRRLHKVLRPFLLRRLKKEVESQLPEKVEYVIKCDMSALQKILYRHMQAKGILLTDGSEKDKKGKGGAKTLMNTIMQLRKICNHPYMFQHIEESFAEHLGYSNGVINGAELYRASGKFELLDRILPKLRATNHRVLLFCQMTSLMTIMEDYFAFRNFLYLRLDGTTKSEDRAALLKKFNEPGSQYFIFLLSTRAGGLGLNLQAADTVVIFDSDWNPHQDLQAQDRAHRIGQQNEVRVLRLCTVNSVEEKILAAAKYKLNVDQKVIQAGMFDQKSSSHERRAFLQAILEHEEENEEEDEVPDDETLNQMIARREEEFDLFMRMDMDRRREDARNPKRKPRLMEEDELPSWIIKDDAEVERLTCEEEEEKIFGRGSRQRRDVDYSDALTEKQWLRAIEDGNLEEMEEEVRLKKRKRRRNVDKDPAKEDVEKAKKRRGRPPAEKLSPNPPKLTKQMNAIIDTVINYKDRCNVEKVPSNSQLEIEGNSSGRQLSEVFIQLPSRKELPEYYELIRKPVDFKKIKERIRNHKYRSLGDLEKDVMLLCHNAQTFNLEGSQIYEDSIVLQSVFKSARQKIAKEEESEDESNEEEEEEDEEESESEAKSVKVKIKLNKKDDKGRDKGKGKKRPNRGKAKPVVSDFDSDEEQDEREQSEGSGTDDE

As to `Nc1nnc(-c2ccccc2O)cc1N1CC(Oc2cccc(CN3CCN(C(=O)CCCCCCCCCNc4cccc5c4C(=O)N(C4CCC(=O)NC4=O)C5=O)CC3)c2)C1` (stereo not shown) [Example 32, 4-[[10-[4-[[3-[1-[3-amino-6-(2-hydroxyphenyl)pyridazin-4-yl]azetidin-3-yl]oxyphenyl]methyl]piperazin-1-yl]-10-oxo-decyl]amino]-2-(2,6-dioxo-3-piperidyl)isoindoline-1,3-dione], the DC50 stood at 281 nM and the Emax was found to be 62%. On to `Nc1nnc(-c2cc(F)ccc2O)cc1N1CC2CCC(C1)N2c1cccc(CN2CCN(C(=O)C3CCN(c4ccc5c(c4)C(=O)N(C4CCC(=O)NC4=O)C5=O)CC3)CC2)c1` (stereo not shown) [Example 158, 5-[4-[4-[[3-[3-[3-amino-6-(5-fluoro-2-hydroxy-phenyl)pyridazin-4-yl]-3,8-diazabicyclo[3.2.1]octan-8-yl]phenyl]methyl]piperazine-1-carbonyl]-1-piperidyl]-2-(2,6-dioxo-3-piperidyl)isoindoline-1,3-dione], for which the Emax came to 5%. As to `CCC(Nc1cccc2c1C(=O)N(C1CCC(=O)NC1=O)C2=O)c1cn(CCCCCCCCCN2CCN(c3ccc(N4CCC[C@H](Oc5cc(-c6ccccc6O)nnc5N)C4)cc3)CC2)nn1` (mixture of isomers) [Example 203, 2-(2,6-dioxo-3-piperidyl)-4-[1-[1-[9-[4-[4-[rac-(3S)-3-[3-amino-6-(2-hydroxyphenyl)pyridazin-4-yl]oxy-1-piperidyl]phenyl]piperazin-1-yl]nonyl]triazol-4-yl]propylamino]isoindoline-1,3-dione], the DC50 came out at 216 nM and the Emax is 28%.

As for `Nc1nnc(-c2ccccc2O)cc1OC1CCCN(c2ccc(N3CCN(C(=O)CCCCCCCCCCCn4cc(CNc5cccc6c5C(=O)N(C5CCC(=O)NC5=O)C6=O)nn4)CC3)cc2)C1` (stereo not shown) [Example 4, 4-[[1-[12-[4-[4-[3-[3-amino-6-(2-hydroxyphenyl)pyridazin-4-yl]oxy-1-piperidyl]phenyl]piperazin-1-yl]-12-oxo-dodecyl]triazol-4-yl]methylamino]-2-(2,6-dioxo-3-piperidyl)isoindoline-1,3-dione], the DC50 turned out to be 149 nM and the Emax amounted to 44%. On to `Nc1nnc(-c2ccccc2O)cc1OC1CCCN(c2ccc(N3CCN(C(=O)CCCCCCCCN4CCN(c5ccc6c(c5)C(=O)N(C5CCC(=O)NC5=O)C6=O)CC4)CC3)cc2)C1` (stereo not shown) [Example 26, 5-[4-[9-[4-[4-[3-[3-amino-6-(2-hydroxyphenyl)pyridazin-4-yl]oxy-1-piperidyl]phenyl]piperazin-1-yl]-9-oxo-nonyl]piperazin-1-yl]-2-(2,6-dioxo-3-piperidyl)isoindoline-1,3-dione], for which the DC50 amounted to 164 nM and the Emax was found to be 63%. As to `Nc1nnc(-c2ccccc2O)cc1N1CC(Oc2cccc(CN3CCN(C(=O)C4CCN(c5ccc6c(c5)C(=O)N(C5CCC(=O)NC5=O)C6=O)CC4)CC3)c2)C1` (racemic) [Example 155, rac-5-[4-[4-[[3-[1-[3-amino-6-(2-hydroxyphenyl)pyridazin-4-yl]azetidin-3-yl]oxyphenyl]methyl]piperazine-1-carbonyl]-1-piperidyl]-2-(2,6-dioxo-3-piperidyl)isoindoline-1,3-dione], the DC50 was 5 nM and the Emax turned out to be 26%. Turning to `Nc1nnc(-c2ccccc2O)cc1N1CCN(c2cccc(CN3CCN(C(=O)CC4CCN(c5ccc6c(c5)C(=O)N(C5CCC(=O)NC5=O)C6=O)CC4)CC3)c2)C2(CC2)C1` (stereo not shown) [Example 130, 5-(4-(2-(4-(3-(7-(3-amino-6-(2-hydroxyphenyl)pyridazin-4-yl)-4,7-diazaspiro[2.5]octan-4-yl)benzyl)piperazin-1-yl)-2-oxoethyl)piperidin-1-yl)-2-(2,6-dioxopiperidin-3-yl)isoindoline-1,3-dione], the DC50 was 12 nM and the Emax turned out to be 43%.
